In PubChem BioAssay (NCI):
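Following 48 hours of exposure in 96-well plates, responses at five concentrations were used to interpolate endpoints linearly. TGI: concentration producing complete growth inhibition.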

What was measured:
Test in all cases: NCI anticancer screen, dose series, 48 h
TK-10 renal = system: TK-10 renal
UACC-62 melanoma = system: UACC-62 melanoma
SK-MEL-28 melanoma = system: SK-MEL-28 melanoma
786-0 renal = system: 786-0 renal
NCI-H23 lung = system: NCI-H23 lung
NCI/ADR-RES ovarian = system: NCI/ADR-RES ovarian
NCI-H522 lung = system: NCI-H522 lung
A498 renal = system: A498 renal
SK-MEL-2 melanoma = system: SK-MEL-2 melanoma
OVCAR-3 ovarian = system: OVCAR-3 ovarian
MALME-3M melanoma = system: MALME-3M melanoma

Structure (SMILES)	TGI (TK-10 renal) [µM]	TGI (UACC-62 melanoma) [µM]	TGI (SK-MEL-28 melanoma) [µM]	TGI (786-0 renal) [µM]	TGI (NCI-H23 lung) [µM]	TGI (NCI/ADR-RES ovarian) [µM]	TGI (NCI-H522 lung) [µM]	TGI (A498 renal) [µM]	TGI (SK-MEL-2 melanoma) [µM]	TGI (OVCAR-3 ovarian) [µM]	TGI (MALME-3M melanoma) [µM]
CCOC(=O)N1CCN(c2ccc3c(C)cc(C)nc3n2)CC1	> 100	> 100	> 100	> 100	> 100	> 100	> 100	> 100	> 100	> 100	> 100
COc1ccc2[nH]c(Cl)c(/C=C3/C(=O)Nc4cc(C)c(OC)cc43)c2c1	21.3	15.2	22.1	19.8	19	6.47	9.62	19.2	7.8	6.46	18.2
COc1ccccc1C1SCC(=O)N1c1ccc(-c2ccc(-n3c(-c4ccccc4)nc4ccccc4c3=O)cc2)cc1 (stereo not drawn)	> 100	> 100	> 100	> 100	> 100	> 100	> 100	> 100	> 100	> 100	> 100
Cc1sc2nc(-c3cc([N+](=O)[O-])c(Cl)cc3Cl)c(/C=N/N=C(N)N)n2c1C	35.7	39.5	6.58	> 100	18.7	> 100	34.2	38.6	5.78	30.3	39.3
COc1cc(C2SCC(=O)N2c2ccc(-n3c(-c4ccccc4)nc4ccccc4c3=O)cc2)ccc1O (stereo not drawn)	> 100	> 100	> 100	> 100	> 100	> 100	> 100	> 100	> 100	> 100	> 100
O=C1C(NCCc2ccc(O)c(O)c2)=CC(=O)c2ncccc21	> 71.6	22.5	28.8	43.2	> 78.3	25.1	7.31	46.7	21.5	7.77	18.4
O=C1C(F)=CC(COC(c2ccccc2)(c2ccccc2)c2ccccc2)OC1n1cc(F)c(=O)[nH]c1=O (stereo not drawn)	3.43	3.62	3.5	3.92	3.91	8.31	3.1	24.4	7.49	3.21	31.4
O=C(Nc1nc2c(=O)[nH]cnc2s1)c1ccccc1	> 100	> 100	> 100	> 100	> 100	> 100	> 100	> 100	> 100	> 100	> 100
Cc1cc(CNC(=O)OCc2ccccc2)c(C)c2c1Oc1ccccc1O2	> 100	> 100	> 100	35.6	> 100	> 71.4	90.7	74.7	> 27.3	> 100	> 100
Cc1ccc(N=Nc2c(O)ccc3cc(S(=O)(=O)O)ccc23)c(C)c1	> 100	> 100	> 100	> 100	> 100	> 100	> 100	> 100	> 100	> 100	> 100
O=C(Nc1c[nH]c(=O)[nH]c1=O)C(Cl)Cl	> 100	> 100	> 100	> 100	> 100	> 100	> 100	> 100	> 100	> 100	> 100
O=c1[nH]nc(-c2ccccc2)n1/N=C/c1c[nH]c2ccccc12	75.6	> 100	> 100	> 100	> 100	> 100	> 100	> 100	> 100	> 100	> 100
COC(=O)C(C)(N=Cc1ccccc1)c1ccccc1 (stereo not drawn)	> 100	> 100	> 100	> 100	> 100	> 100	> 100	> 100	> 100	> 100	> 100
FC(F)(F)c1ccccc1N1CCN(c2nc(-c3cccs3)nc3ccc(Br)cc23)CC1	97.3	46.3	> 100	> 100	> 100	> 100	> 100	> 100	74.1	76.2	55.9
NCCCn1c2ccccc2c2c3c(c4c(c21)CCC(O)CC4)C(=O)NC3=O (stereo not drawn)	14.7	17.3	13.1	16.8	14.3	32.9	13.2	22.8	24.1	12.2	15.8
Clc1ccc(Cc2nc3ccc(CCN4CCN(c5ccccc5)CC4)cc3[nH]2)cc1	27	33.6	54.3	23.1	32.5	51.6	28.4	32.5	30.6	27	32.9
CNc1ccc(-c2nc3cc(C)ccc3o2)cc1	> 100	> 100	> 100	> 100	> 100	> 100	> 100	77.8	> 100	> 100	> 100
O=[N+]([O-])/C(C(Cl)=C(Cl)Cl)=C1\NCCO1	> 100	> 100	> 100	> 100	> 100	> 100	> 100	> 100	> 100	> 100	> 100
CCOC(=O)/C(=C\c1ccc(N(C)C)cc1)S(=O)(=O)C(F)(F)C(F)(F)C(F)(F)C(F)(F)F	> 100	> 100	> 100	> 100	> 100	> 100	> 100	> 100	> 100	> 100	> 100

Structure (SMILES)	TGI (TK-10 renal) [µM]	TGI (UACC-62 melanoma) [µM]	TGI (SK-MEL-28 melanoma) [µM]	TGI (786-0 renal) [µM]	TGI (NCI-H23 lung) [µM]	TGI (NCI/ADR-RES ovarian) [µM]	TGI (NCI-H522 lung) [µM]	TGI (A498 renal) [µM]	TGI (SK-MEL-2 melanoma) [µM]	TGI (OVCAR-3 ovarian) [µM]	TGI (MALME-3M melanoma) [µM]
Clc1cc2c(c(CSC3=NCN(CC4CC4)CN3)c1)OCOC2	40.8	35.3	38.3	52.2	39.3	72.9	30.1	58.2	35.4	> 100	34.2
CC(C(=O)ON1C(=O)CCC1=O)c1ccc(C(=O)c2ccccc2)s1 (stereo not drawn)	> 100	> 100	> 100	> 100	> 100	> 100	> 100	> 100	> 100	> 100	> 100
Cc1ccc(OCC2OC(n3cnc4nc(Cl)nc(Cl)c43)CC2Oc2ccc(C)cc2)cc1 (stereo not drawn)	28.7	20.5	14.1	19.9	24.5	37.8	4.31	72.2	18.1	18.9	33.9
COC1=C(N=[N+]=[N-])C(=O)c2ncccc2C1=O	20.4	20.8	27.4	16.3	16.1	25.6	3.9	30.9	37.5	15.5	5.03
O=C1/C(=C\c2cccc(Oc3ccccc3)c2)S(=O)(=O)C(c2ccccc2)N1c1ccccc1Cl (stereo not drawn)	> 100	94.8	> 100	> 100	> 100	> 100	49.1	> 100	> 100	64.3	> 100
CN(C(=O)Cc1ccc(Cl)c(Cl)c1)[C@H]1CCCC[C@@H]1[N+]1(C)CCCC1	> 100	> 100	> 100	> 100	> 100	> 100	> 100	> 100	> 100	> 100	> 100
CCOc1cc(NC(C)=O)ccc1C(=O)NN1C(=O)C(Oc2ccccc2)C1c1ccccc1 (stereo not drawn)	> 100	> 100	> 100	> 100	> 100	> 100	> 100	> 100	> 100	> 100	> 100
Cc1c(C(=O)N2CCN(c3ccc([N+](=O)[O-])cc3)CC2)[n+](=O)c2cc(Cl)c(Cl)cc2n1[O-]	39.3	34	73.4	30.8	32	32.7	32.7	23.1	> 100	43.2	48.4
[Se]=P(c1ccccc1)(c1ccccc1)c1ccc(C(c2ccccc2)=P(c2ccccc2)(c2ccccc2)c2ccccc2)cc1	6.88	3.85	20.2	10.8	13.9	> 54.1	1.7	9.4	6.21	4.22	2.51
ClC(Cl)(Cl)C1=N[C@H]2[C@H](Br)[C@@H]3O[C@@H](c4ccccc4)[C@H](c4ccccc4)O[C@@H]3[C@H]2O1	37.5	31.5	37.1	39.6	42.3	65.2	26.7	31.3	31.3	31.9	36.2
Cc1cc(-c2[nH]c(C(=O)O)cc2I)on1	> 100	> 100	> 100	> 100	> 100	> 100	> 100	> 100	> 100	> 100	> 100
COc1ccc(O[C@H](COCc2ccccc2)C[C@@H]2COC(C)(C)O2)cc1	> 100	> 100	> 100	> 100	> 100	> 100	> 100	> 100	> 100	> 100	> 100
CCCCc1c(C(=O)OC(C)(C)C)cc(C#Cc2cc(C(=O)OC(C)(C)C)c(CCCC)c(C(=O)OC(C)(C)C)c2)cc1C(=O)OC(C)(C)C	> 100	> 100	> 100	> 100	> 100	> 100	> 100	> 100	> 100	> 100	> 100
COC(=O)c1ccccc1C#CC#Cc1ccccc1C(=O)OC	> 10	> 10	> 10	> 10	> 10	> 10	> 10	> 10	> 10	7.91	> 10
C=CCOc1ccccc1N=N/C(C#N)=N\Nc1ccccc1OCC=C	> 100	> 100	> 100	> 100	> 100	> 100	> 100	> 100	> 100	> 100	> 100
CC(C)C(C/C=C1\CC(CO)(COC(=O)c2ccccc2)OC1=O)C(C)C (stereo not drawn)	34.2	> 100	30.2	28.3	38	45	38.5	50.7	> 100	37.7	31.9
COC(=O)C(CCc1ccccc1I)C1=CCC2(CC1)OCCO2 (stereo not drawn)	> 100	> 100	> 100	> 100	> 100	> 100	68.8	> 100	> 100	> 100	> 100
COc1ccc2cc1Oc1ccc(cc1)C(Sc1ccccc1)CCOC(=O)CC2 (stereo not drawn)	> 100	> 100	> 100	> 100	> 100	> 100	> 100	> 100	> 100	> 100	> 100
C/C(=N/NC(=S)Nc1ccccc1Cl)c1cccc(/C(C)=N\NC(=S)Nc2ccccc2Cl)n1	> 100	> 100	> 100	> 100	> 100	> 100	> 100	> 100	> 100	> 100	> 100
